In US20180325914A1, “INCREASING STORAGE OF VITAMIN A, VITAMIN D AND/OR LIPIDS” (Salk Institute for Biological Studies, priority 2014, published 2018):

Columns and labels:
C57BL/6J mice = assay: CCl4 model of liver injury and fibrosis, preventive study; format: in vivo, mouse; settings: JQ1 50 mg/kg IP
Procedure: The animals were terminated 72 hours after the final CCl4 injection and whole livers were collected for histological, cytological, biochemical and molecular analyses.
5 μm sections of formalin-fixed liver were stained following standard hematoxylin-eosin (H&E) and Sirius Red methods and reviewed by a pathologist who was blinded to the experimental conditions. Fibrosis was scored using the Ishak modified histological activity index (HAI) scoring system. Liver fibrosis was also quantified using Image J software on 10 non-contiguous Sirius Red stained sections. […] fibrosis was quantified using hydroxyproline assay. All images were obtained using a high-resolution Leica DFC420 digital camera mounted on an Olympus microscope equipped with ×4/0.13, ×10/0.30, ×20/0.50 and ×40/0.75 UplanFL N plan objective lenses and processed with the Leica Application Suite. Tissue hydroxyproline content was measured using a kit from Biovision (K555-100).
Liver samples were deparaffinized and rehydrated in PBS. Following antigen retrieval with the target retrieval solution (Dako, Glostrup, Denmark), endogenous peroxidase activity was blocked by incubation with 0.3% hydrogen peroxide. […]

[1] = test system: BRD2, BRD3, BRD4 (BETs) occupancy on chromatin; format: cell-based, human; settings: LX-2 cells; 500 nM, 16 hr
Procedure: Cells were then harvested for ChIP assay. The experimental procedure for ChIP was as previously described.
The procedure was as previously described^5,31. Briefly, short DNA reads were demultiplexed using the Illumina CASAVA v1.8.2. […] Only tags that map uniquely to the genome were considered for further analysis. Subsequent peak calling and motif analysis were conducted using HOMER, a software suite for ChIP-Seq analysis. The methods for HOMER, which are described below, have been implemented and are freely available on the internet (biowhat.ucsd.edu/homer/). One tag from each unique position was considered to eliminate peaks resulting from clonal amplification of fragments during the ChIP-Seq protocol. Peaks were identified by searching for clusters of tags within a sliding 200 bp window, requiring adjacent clusters to be at least 1 kb away from each other. The threshold for the number of tags that determine a valid peak was selected for a false discovery rate of <0.01, as empirically determined by repeating the peak finding procedure using randomized tag positions. […] Peaks are annotated to gene products by identifying the nearest RefSeq transcriptional start site. Visualization of ChIP-Seq results was achieved by uploading custom tracks onto the UCSC genome browser.
BETs are chromatin regulators^7.

In the case of `Cc1sc2c(c1C)C(c1ccc(Cl)cc1)=N[C@@H](CC(=O)OC(C)(C)C)c1nnc(C)n1-2` [JQ1, (S)-tert-butyl 2-(4-(4-chlorophenyl)-2,3,9-trimethyl-6H-thieno[3,2-f][1,2,4]triazolo[4,3-a][1,4]diazepin-6-yl)acetate], the “liver fibrosis and markers of HSC activation” value (C57BL/6J mice; CCl4/JQ1 co-treated vs CCl4 mice, four weeks, Sirius red, hydroxyproline, Acta2, Ishak score) was “dramatic reduction”, the “CCl4-induced key fibrotic marker genes in liver (mRNA-Seq)” value (C57BL/6J mice) was “significant suppression” and the “BET occupancy at the COL1A1 enhancer locus (ChIP)” value [1] was “significantly diminished”. For the same molecule, the “PAF1 and CDK9 (elongation cofactors) on chromatin” value [1] was “displaced”, the “occupancy of BETs on chromatin (ChIP-Seq)” value [1] was “dramatically reduces” and the “recruitment of serine 2 phosphorylated form (S2p) of RNA Pol II” value [1] was “specific decrease”. The “sensitivity of BRD4 occupancy on super-enhancer regions to reduction, versus control enhancer regions” value [1] was “more sensitive” and the “serine 5 Pol II phospho-form (S5p)” value [1] was “little change”.
